Experimental findings from US20140303164A1, “THERAPEUTIC COMPOUNDS” (Gilead Sciences, Inc., priority 2013, published 2014) are described below.

In one data set the test system is HIV-IIIb. In words: Test A: Antiviral Assay in MT4 Cells. The data set is classed as cell-based, HIV-1. The note with it: Human immunodeficiency virus 1, IIIB, MT4, 120 h; for inhibition at 0.2 µM: read-out: % inhibition at 0.2 μM; for inhibition at 2 µM: read-out: % inhibition at 2 μM. The procedure: Test A: Antiviral Assay in MT4 Cells
MT-4 cells were next mixed with HIV-IIIb at an m.o.i of 0.003 for 1 hour, after which time 35 μL of virus/cell mixture (2000 cells) was immediately added to each well containing 40 μL of diluted compound. The plates were then incubated at 37° C. for 5 days. […] Cell lysis was carried out by incubating at room temperature for 10 min and then chemiluminescence was read.

The nature of data set [1]: Test B: Cytotoxicity Assay. Particulars: human, uninfected MT-4 cells, same protocol as Test A. The data set is classed as cell-based. Put shortly: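 Uninfected MT-4 cells (2000 per well) incubated with diluted compound at 37° C. for 5 days, following the antiviral protocol without HIV-IIIb.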

Regarding `CCNS(=O)(=O)Nc1nn(C)c2c(-c3ccc(C#CC(C)(C)O)nc3[C@H](Cc3cc(F)cc(F)c3)NC(=O)Cn3nc(C(F)(F)F)c4c3C(F)(F)[C@@H]3C[C@H]43)cccc12` [Compound 53, 2-((3bS,4aR)-5,5-difluoro-3-(trifluoromethyl)-3b,4,4a,5-tetrahydro-1H-cyclopropa[3,4]cyclopenta[1,2-c]pyrazol-1-yl)-N—((S)-2-(3,5-difluorophenyl)-1-(3-(3-((N-ethylsulfamoyl)amino)-1-methyl-1H-indazol-7-yl)-6-(3-hydroxy-3-methylbut-1-yn-1-yl)pyridin-2-yl)ethyl)acetamide], in the data set on HIV-IIIb, the inhibition at 0.2 µM was 92% and the inhibition at 2 µM is 92%. In addition, in data set [1], the CC50 at 5 days was determined as 8.03 µM.
`CCC(=O)Nc1nn(C)c2c(-c3ccc(C#CC(C)(C)O)nc3[C@H](Cc3cc(F)cc(F)c3)NC(=O)Cn3nc(C(F)F)c4c3C(F)(F)[C@@H]3C[C@H]43)ccc(Cl)c12` [Compound 95, N-(4-chloro-7-(2-((S)-1-(2-((3b-S,4aR)-3-(difluoromethyl)-5,5-difluoro-3b,4,4a,5-tetrahydro-1H-cyclopropa[3,4]cyclopenta[1,2-c]pyrazol-1-yl)acetamido)-2-(3,5-difluorophenyl)ethyl)-6-(3-hydroxy-3-methylbut-1-yn-1-yl)pyridin-3-yl)-1-methyl-1H-indazol-3-yl)propionamide]: in the data set on HIV-IIIb, the inhibition at 0.2 µM was determined as 93% and the inhibition at 2 µM was found to be 93%. The CC50 at 5 days in data set [1] was found to be 6.51 µM.
With `COC(=O)Nc1nn(CC(=O)N[C@@H](Cc2cc(F)cc(F)c2)c2nc(C#CC(C)(C)O)ccc2-c2ccc(Cl)c3c(NS(C)(=O)=O)nn(C)c23)c2c1[C@H]1C[C@H]1C2(F)F` [Compound 162, methyl ((3bS,4aR)-1-(2-(((S)-1-(3-(4-chloro-1-methyl-3-(methylsulfonamido)-1H-indazol-7-yl)-6-(3-hydroxy-3-methylbut-1-yn-1-yl)pyridin-2-yl)-2-(3,5-difluorophenyl)ethyl)amino)-2-oxoethyl)-5,5-difluoro-3b,4,4a,5-tetrahydro-1H-cyclopropa[3,4]cyclopenta[1,2-c]pyrazol-3-yl)carbamate], in the data set on HIV-IIIb, the inhibition at 0.2 µM was determined as 81% and the inhibition at 2 µM was 81%. Further, in data set [1], half-maximal cytotoxicity (CC50 at 5 days) was put at 22.4 µM.
In the case of `Cn1nc(NS(C)(=O)=O)c2c(Cl)ccc(-c3ccc(C#CC(C)(C)O)nc3[C@H](Cc3cc(F)cc(F)c3)NC(=O)Cn3nc(Cl)c4c3CCCC4)c21` [Compound 126, (S)—N-(1-(3-(4 chloro-1-methyl-3-(methylsulfonamido)-1H-indazol-7-yl)-6-(3-hydroxy-3-methylbut-1-yn-1-yl)pyridin-2-yl)-2-(3,5-difluorophenyl)ethyl)-2-(3-chloro-4,5,6,7-tetrahydro-1H-indazol-1-yl)acetamide], in the data set with HIV-IIIb, the inhibition at 0.2 µM turned out to be 92% and the inhibition at 2 µM is 92%. In addition, in data set [1], the CC50 at 5 days was 15.5 µM.
On to `Cn1nc(NS(C)(=O)=O)c2c(Cl)ccc(-c3ccc(C#CC(C)(O)C(F)F)nc3[C@H](Cc3cc(F)cc(F)c3)NC(=O)Cn3nc(C(F)(F)F)c4c3C(F)(F)[C@@H]3C[C@H]43)c21` (stereo partly drawn) [Compound 157G, N-((1S)-1-(3-(4-chloro-1-methyl-3-(methylsulfonamido)-1H-indazol-7-yl)-6-(4,4-difluoro-3-hydroxy-3-methylbut-1-yn-1-yl)pyridin-2-yl)-2-(3,5-difluorophenyl)ethyl)-2-((3b-S,4aR)-5,5-difluoro-3-(trifluoromethyl)-3b,4,4a,5-tetrahydro-1H-cyclopropa[3,4]cyclopenta[1,2-c]pyrazol-1-yl)acetamide], for which, in the data set with HIV-IIIb, the inhibition at 0.2 µM worked out at 87% and the inhibition at 2 µM was 87%. In data set [1], the midpoint of cytotoxicity, the CC50 at 5 days, lay at 10.9 µM.
On to `COCC(C)(O)C#Cc1ccc(-c2ccc(Cl)c3c(NS(C)(=O)=O)nn(C)c23)c([C@H](Cc2cc(F)cc(F)c2)NC(=O)Cn2nc(C(F)(F)F)c3c2C(F)(F)[C@@H]2C[C@H]32)n1` (stereo partly drawn) [Compound 154, N-((1S)-1-(3-(4-chloro-1-methyl-3-(methylsulfonamido)-1H-indazol-7-yl)-6-(3-hydroxy-4-methoxy-3-methylbut-1-yn-1-yl)pyridin-2-yl)-2-(3,5-difluorophenyl)ethyl)-2-((3bS,4aR)-5,5-difluoro-3-(trifluoromethyl)-3b,4,4a,5-tetrahydro-1H-cyclopropa[3,4]cyclopenta[1,2-c]pyrazol-1-yl)acetamide], for which, in the data set on HIV-IIIb, the inhibition at 0.2 µM amounted to 97% and the inhibition at 2 µM came out at 97%. In data set [1], this compound yielded a 50% cytotoxic concentration (CC50) at 5 days of 12.5 µM.
`CC(C)(O)C#Cc1ccc(-c2ccc(Cl)c(C(N)=O)c2)c([C@H](Cc2cc(F)cc(F)c2)NC(=O)Cn2nc(C(F)(F)F)c3c2C(F)(F)[C@@H]2C[C@H]32)n1` [Compound 80, 2-chloro-5-(2-((S)-1-(2-((3bS,4aR)-5,5-difluoro-3-(trifluoromethyl)-3b,4,4a,5-tetrahydro-1H-cyclopropa[3,4]cyclopenta[1,2-c]pyrazol-1-yl)acetamido)-2-(3,5-difluorophenyl)ethyl)-6-(3-hydroxy-3-methylbut-1-yn-1-yl)pyridin-3-yl)benzamide]: in the data set on HIV-IIIb, the inhibition at 0.2 µM amounted to 96% and the inhibition at 2 µM stood at 100%. Further, the midpoint of cytotoxicity in data set [1], the CC50 at 5 days, lay at 8.58 µM.
Taken in the same sequence, the figures for `CC(C)(O)C#Cc1ncc(-c2ccc3c(c2)C(=O)NC3)c([C@H](Cc2cc(F)cc(F)c2)NC(=O)Cn2nc(C(F)F)c3c2C(F)(F)CCC3(F)F)n1` [Compound 21H, (S)-2-(3-(difluoromethyl)-4,4,7,7-tetrafluoro-4,5,6,7-tetrahydro-1H-indazol-1-yl)-N-(2-(3,5-difluorophenyl)-1-(2-(3-hydroxy-3-methylbut-1-yn-1-yl)-5-(3-oxoisoindolin-5-yl)pyrimidin-4-yl)ethyl)acetamide] were 92%, 92% and 7.63 µM.
Taken in the same sequence, the figures for `Cn1nc(NS(N)(=O)=O)c2cccc(-c3ccc(C#CC(C)(C)O)nc3[C@H](Cc3cc(F)cc(F)c3)NC(=O)Cn3nc(C(F)(F)F)c4c3C(F)(F)[C@@H]3C[C@H]43)c21` [Compound 44, 2-((3bS,4aR)-5,5-difluoro-3-(trifluoromethyl)-3b,4,4a,5-tetrahydro-1H-cyclopropa[3,4]cyclopenta[1,2-c]pyrazol-1-yl)-N—((S)-2-(3,5-difluorophenyl)-1-(6-(3-hydroxy-3-methylbut-1-yn-1-yl)-3-(1-methyl-3-(sulfamoylamino)-1H-indazol-7-yl)pyridin-2-yl)ethyl)acetamide] were 94%, 94% and 6.82 µM.
As to `Cn1nc(NS(C)(=O)=O)c2c(Cl)ccc(-c3ccc(C#CC(C)(C)O)nc3[C@H](Cc3cc(F)cc(F)c3)NC(=O)Cn3nc(C(F)(F)F)c4c3COCC4)c21` [Compound 190, (S)—N-(1-(3-(4 chloro-1-methyl-3-(methylsulfonamido)-1H-indazol-7-yl)-6-(3-hydroxy-3-methylbut-1-yn-1-yl)pyridin-2-yl)-2-(3,5-difluorophenyl)ethyl)-2-(3-(trifluoromethyl)-4,5-dihydropyrano[3,4-c]pyrazol-1(7H)-yl)acetamide], in the data set on HIV-IIIb, the inhibition at 0.2 µM is 98% and the inhibition at 2 µM amounted to 98%. Also, it took 13.9 µM to reach half-maximal cytotoxicity in data set [1] (CC50 at 5 days).
On to `Cn1nc(NS(C)(=O)=O)c2c(Cl)ccc(-c3ccc(C#CC(C)(O)CF)nc3[C@H](Cc3cc(F)cc(F)c3)NC(=O)Cn3nc(C(F)F)c4c3C(F)(F)[C@@H]3C[C@H]43)c21` (stereo partly drawn) [Compound 144, N-((1S)-1-(3-(4-chloro-1-methyl-3-(methylsulfonamido)-1H-indazol-7-yl)-6-(4-fluoro-3-hydroxy-3-methylbut-1-yn-1-yl)pyridin-2-yl)-2-(3,5-difluorophenyl)ethyl)-2-((3b-S,4aR)-3-(difluoromethyl)-5,5-difluoro-3b,4,4a,5-tetrahydro-1H-cyclopropa[3,4]cyclopenta[1,2-c]pyrazol-1-yl)acetamide], for which, in the data set on HIV-IIIb, the inhibition at 0.2 µM came to 95% and the inhibition at 2 µM was 95%. The same compound returned a 50% cytotoxic concentration (CC50) at 5 days in data set [1] of 16.2 µM.
In the case of `Cn1nc(NS(N)(=O)=O)c2c(Cl)ccc(-c3ccc(C#CC(C)(C)O)nc3[C@H](Cc3cc(F)cc(F)c3)NC(=O)Cn3nc(C(F)F)c4c3C(F)(F)CCC4(F)F)c21` [Compound 122, (S)—N-(1-(3-(4 chloro-1-methyl-3-(sulfamoylamino)-1H-indazol-7-yl)-6-(3-hydroxy-3-methylbut-1-yn-1-yl)pyridin-2-yl)-2-(3,5-difluorophenyl)ethyl)-2-(3-(difluoromethyl)-4,4,7,7-tetrafluoro-4,5,6,7-tetrahydro-1H-indazol-1-yl)acetamide], in the data set with HIV-IIIb, the inhibition at 0.2 µM was determined as 88% and the inhibition at 2 µM turned out to be 88%. Further, the midpoint of cytotoxicity in data set [1], the CC50 at 5 days, lay at 9.07 µM.
On to `CNCC(=O)Nc1nn(C)c2c(-c3ccc(C#CC(C)(C)O)nc3[C@H](Cc3cc(F)cc(F)c3)NC(=O)Cn3nc(C(F)F)c4c3C(F)(F)[C@@H]3C[C@H]43)ccc(Cl)c12` [Compound 101, N—((S)-1-(3-(4-chloro-1-methyl-3-(2-(methylamino)acetamido)-1H-indazol-7-yl)-6-(3-hydroxy-3-methylbut-1-yn-1-yl)pyridin-2-yl)-2-(3,5-difluorophenyl)ethyl)-2-((3bS,4aR)-3-(difluoromethyl)-5,5-difluoro-3b,4,4a,5-tetrahydro-1H-cyclopropa[3,4]cyclopenta[1,2-c]pyrazol-1-yl)acetamide], for which, in the data set with HIV-IIIb, the inhibition at 0.2 µM was found to be 95% and the inhibition at 2 µM was 95%. Besides, the CC50 at 5 days in data set [1] was found to be 6.53 µM.
